Experimental data published in patent US5352804A, “Isolation and structure of Halistatin 2” (Arizona Board of Regents, a body corporate, acting on …, priority 1993, dated 1994).
Entries after “also recorded” stand apart in the source; their conditions may differ. Like-named read-outs stand apart in the source and are kept apart here.

Experiments:
tubulin [1] = experiment: binding of radiolabeled vinblastine to tubulin
[2] = test system: L1210 murine leukemia cells; experiment: mitotic index (accumulation of cells arrested in mitosis); type: cell-based; conditions: at cytotoxic concentrations
[3] = test system: P388 lymphocytic leukemia; experiment: P388 lymphocytic leukemia in vivo (NCI protocol); conditions: 40 μg/kg host body weight, BDF mice
Experimental: When BDF, mice were treated with 40 μg/kg host body weight of halistatin 2.

tubulin [4] = experiment: radiolabeled GTP binding to tubulin / nucleotide exchange on tubulin
Text: (§1) For radiolabeled GTP binding to tubulin, the same drug concentrations inhibited the reaction by 17% and 51% with halistatin 2.

KM12 = experiment: NCI human tumor in vitro primary screen; type: cell-based; conditions: colon cancer
Text: (§2) Only two hundred years ago, many diseases ravaged humankind. Many of these diseases now have been controlled or eradicated. In the development of the means to treat or control these diseases, work with the appropriate common experimental animals was of critical importance. With the various types of cancers, and with the HIV virus, such work is presently ongoing. The research for the treatment of various types of cancer is coordinated in the United States by the National Cancer Institute (NCI). NCI, as a government entity, has been charged with assisting anti-cancer research. To establish whether a substance has anti cancer activity, NCI has established a variety of protocols, one of which involves testing the candidate substance against a cell line panel containing 60 human tumor cell lines. This protocol has been verified and is generally accepted throughout the scientific community. This protocol and the established statistical means of evaluating the results obtained therefrom have been fully described in the literature. See Principles & Practice of Oncology PPO Updates, Volume 3, Number 10, Oct. 1989, by Michael R. Boyd, M.D., Ph.D., for an indepth description of the test protocol. The statistical analysis is explained in "Display and Analysis of Patterns of Differential Activity of Drugs Against Human Tumor Cell Lines: Development of Means Graph and COMPARE Algorithm" Journal of the National Cancer Institute Reports Vol. 81, No. 14, Pg. 1088, Jul. 14, 1989, by K. D. Paull et al. Both of these references are incorporated herein by this reference thereto.
(§3) Biological Testing; Data Display and Analysis; Screening Data Summary. Freshly isolated halistatin 2 was tested in the NCI's human tumor, disease-oriented in vitro primary screen, and data calculations performed. Table 3 is a composite prepared from mean graphs constructed from the averaged GI50 values from quadruplicate screenings of Halistatin 2.

SNB-75 = experiment: NCI human tumor in vitro primary screen; type: cell-based; conditions: CNS cancer
Text: as §2, §3

SK-MEL-2 = experiment: NCI human tumor in vitro primary screen; type: cell-based; conditions: melanoma
Text: as §2, §3

IGROV-1 = experiment: NCI human tumor in vitro primary screen; type: cell-based
Text: as §2, §3

COLO 205 = experiment: NCI human tumor in vitro primary screen; type: cell-based; conditions: colon cancer
Text: as §2, §3

A498 = experiment: NCI human tumor in vitro primary screen; type: cell-based; conditions: renal cancer
Text: as §2, §3

SF-539 = experiment: NCI human tumor in vitro primary screen; type: cell-based; conditions: CNS cancer
Text: as §2, §3

SK-MEL-5 = experiment: NCI human tumor in vitro primary screen; type: cell-based; conditions: melanoma
Text: as §2, §3

TK-10 = experiment: NCI human tumor in vitro primary screen; type: cell-based; conditions: renal cancer
Text: as §2, §3

SN12C = experiment: NCI human tumor in vitro primary screen; type: cell-based; conditions: renal cancer
Text: as §2, §3

M14 = experiment: NCI human tumor in vitro primary screen; type: cell-based; conditions: melanoma
Text: as §2, §3

HOP-18 = experiment: NCI human tumor in vitro primary screen; type: cell-based; conditions: non-small cell lung cancer
Text: as §2, §3

UACC-62 = experiment: NCI human tumor in vitro primary screen; type: cell-based; conditions: melanoma
Text: as §2, §3

DLD-1 = experiment: NCI human tumor in vitro primary screen; type: cell-based; conditions: colon cancer
Text: as §2, §3

NCI-H226 = experiment: NCI human tumor in vitro primary screen; type: cell-based
Text: as §2, §3

MOLT-4 = experiment: NCI human tumor in vitro primary screen; type: cell-based; conditions: leukemia
Text: as §2, §3

786-0 = experiment: NCI human tumor in vitro primary screen; type: cell-based; conditions: renal cancer
Text: as §2, §3

tubulin [5] = experiment: glutamate-induced polymerization of purified tubulin; type: biochemical
Experimental: Halistatin 2 was evaluated to determine if it was an antimitotic agent which interfered with the polymerization of purified tubulin and microtubule assembly dependent on microtubule-associated proteins isolated.
as §1

NCI-H322M = experiment: cells; type: cell-based; conditions: Homo sapiens
[6] = read-out: Log10 GI50 (converted)
[7] = read-out: Log10 TGI (converted)
[8] = read-out: averaged negative log10 GI50 (converted)

C=C1CC2CCC34CC5OC6C(O3)C3OC(CCC3OC6(O)C5O4)CC(=O)OC3C(CC4OC(CCC1O2)CC(C)C4=C)OC1CC2OC4(CC2OC1C3C)CC1OC2(CC(C)C3OC5CC(C(O)CO)OC5CC3O2)CC(C)C1O4 (stereo not shown) [halistatin 2]
inhibition of radiolabeled vinblastine binding to tubulin (in words) (tubulin [1]): inhibited the binding of radiolabeled vinblastine and GTP to tubulin
type of inhibition of vinblastine binding (in words) (tubulin [1]): noncompetitive inhibitor
inhibition of radiolabeled vinblastine binding to tubulin (tubulin [1]; 5 μM): 51%
inhibition of radiolabeled vinblastine binding to tubulin (tubulin [1]; 10 μM): 75%
mitotic arrest / rise in mitotic index (in words) [2]: caused a significant rise in the mitotic index; also recorded: caused the accumulation of cells arrested in mitosis
mitotic index [2]: ≤ 20%
cure rate [3]: 18%
life extension of those not cured [3]: 220%
survival rate [3]: 100%
inhibition of nucleotide exchange on tubulin (in words) (tubulin [4]): inhibit nucleotide exchange on tubulin
inhibition of radiolabeled GTP binding to tubulin (in words) (tubulin [4]): inhibited the binding of radiolabeled vinblastine and GTP to tubulin
inhibition of radiolabeled GTP binding to tubulin (tubulin [4]; 5 μM): 17%
inhibition of radiolabeled GTP binding to tubulin (tubulin [4]; 10 μM): 51%
inhibition of nucleotide exchange, comparison (in words) (tubulin [4]; 5 and 10 μM, comparator not given): superior as an inhibitor of nucleotide exchange
GI50 (KM12; [6]): 0.537 nM
IC (TGI) (KM12; [7]): 10 nM
GI50 (KM12; [8]): 0.537 nM
GI50 (SNB-75; [6]): 0.269 nM
IC (TGI) (SNB-75; [7]): 10 nM
GI50 (SNB-75; [8]): 0.269 nM
GI50 (SK-MEL-2; [6]): 0.309 nM
IC (TGI) (SK-MEL-2; [7]): 4.57 nM
GI50 (SK-MEL-2; [8]): 0.309 nM
GI50 (IGROV-1; IGROV1, ovarian cancer, read-out: Log10 GI50 (converted)): 0.891 nM
IC (TGI) (IGROV-1; IGROV1, ovarian cancer, read-out: Log10 TGI (converted)): 10 nM
GI50 (IGROV-1; ovarian cancer, read-out: averaged negative log10 GI50 (converted)): 0.891 nM
GI50 (COLO 205; [6]): 0.219 nM
IC (TGI) (COLO 205; [7]): 1.51 nM
GI50 (COLO 205; [8]): 0.219 nM
GI50 (A498; [6]): 1.82 nM
IC (TGI) (A498; [7]): 10 nM
GI50 (A498; [8]): 1.82 nM
GI50 (SF-539; [6]): 0.324 nM
IC (TGI) (SF-539; [7]): 1.51 nM
GI50 (SF-539; [8]): 0.324 nM
GI50 (SK-MEL-5; [6]): 0.182 nM
IC (TGI) (SK-MEL-5; [7]): 1.82 nM
GI50 (SK-MEL-5; [8]): 0.182 nM
GI50 (TK-10; [6]): 5.5 nM
IC (TGI) (TK-10; [7]): 10 nM
GI50 (TK-10; [8]): 5.5 nM
GI50 (SN12C; [6]): 1.82 nM
IC (TGI) (SN12C; [7]): 10 nM
GI50 (SN12C; [8]): 1.82 nM
GI50 (M14; [6]): 0.676 nM
IC (TGI) (M14; [7]): 5.75 nM
GI50 (M14; [8]): 0.676 nM
GI50 (HOP-18; [6]): 2.82 nM
IC (TGI) (HOP-18; [7]): 10 nM
GI50 (HOP-18; [8]): 2.82 nM
GI50 (UACC-62; [6]): 0.339 nM
IC (TGI) (UACC-62; [7]): 10 nM
GI50 (UACC-62; [8]): 0.339 nM
GI50 (DLD-1; [6]): 1.2 nM
IC (TGI) (DLD-1; [7]): 10 nM
GI50 (DLD-1; [8]): 1.2 nM
GI50 (NCI-H226; NCl-H226, non-small cell lung cancer, read-out: Log10 GI50 (converted)): 0.724 nM
IC (TGI) (NCI-H226; NCl-H226, non-small cell lung cancer, read-out: Log10 TGI (converted)): 3.72 nM
GI50 (NCI-H226; non-small cell lung cancer, read-out: averaged negative log10 GI50 (converted)): 0.724 nM
GI50 (MOLT-4; [6]): 0.407 nM
IC (TGI) (MOLT-4; [7]): 10 nM
GI50 (MOLT-4; [8]): 0.407 nM
GI50 (786-0; [6]): 0.389 nM
IC (TGI) (786-0; [7]): 10 nM
GI50 (786-0; [8]): 0.389 nM
inhibition of tubulin polymerization (in words) (tubulin [5]): inhibited tubulin polymerization
IC50 (tubulin [5]; purified tubulin): 4900 ± 500 nM
GI50 (NCI-H322M; [6]): 3.02 nM
IC (TGI) (NCI-H322M; read-out: Log10 TGI): 10 nM
GI50 (NCI-H322M; [8]): 3.02 nM
